These results are taken from ChEMBL document CHEMBL5715954, “Silencing c-Myc translation as a therapeutic strategy through targeting PI3Kδ and CK1ε in hematological malignancies” (Blood, 2017).

Common to all, as to design: scale not given: the % may be the effect or the level left
Assay [1] concerns the target T1, Serine/threonine-protein kinase Chk1 (Homo sapiens) (UniProt O14757).
T1 sequence (whole entry): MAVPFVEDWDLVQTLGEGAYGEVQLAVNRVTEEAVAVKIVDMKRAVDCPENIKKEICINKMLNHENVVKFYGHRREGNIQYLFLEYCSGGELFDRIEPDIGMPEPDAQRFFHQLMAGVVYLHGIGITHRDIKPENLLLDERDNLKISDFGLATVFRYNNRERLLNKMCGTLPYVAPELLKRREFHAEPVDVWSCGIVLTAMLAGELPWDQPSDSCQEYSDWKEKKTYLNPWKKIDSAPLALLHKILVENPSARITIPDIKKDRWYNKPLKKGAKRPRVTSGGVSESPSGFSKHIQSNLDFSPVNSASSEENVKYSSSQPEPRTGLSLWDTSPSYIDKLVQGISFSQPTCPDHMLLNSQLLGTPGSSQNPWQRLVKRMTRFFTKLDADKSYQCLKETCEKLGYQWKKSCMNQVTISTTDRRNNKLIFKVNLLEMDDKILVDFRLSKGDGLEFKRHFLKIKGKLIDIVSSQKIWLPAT
Kind of assay: Inhibition of human CHK1 assessed as enzyme activity at 1 uM using KKKVSRSGLYRSPSMPENLNRPR as substrate preincubated for 20 mins followed by [gamma-33P]-ATP addition and measured after 120 mins by radiometric Hot-SpotSM Kinase assay relative to control.

The target of assay [2] is T2, Ephrin type-B receptor 2 (Homo sapiens) (UniProt P29323).
T2 sequence (whole entry): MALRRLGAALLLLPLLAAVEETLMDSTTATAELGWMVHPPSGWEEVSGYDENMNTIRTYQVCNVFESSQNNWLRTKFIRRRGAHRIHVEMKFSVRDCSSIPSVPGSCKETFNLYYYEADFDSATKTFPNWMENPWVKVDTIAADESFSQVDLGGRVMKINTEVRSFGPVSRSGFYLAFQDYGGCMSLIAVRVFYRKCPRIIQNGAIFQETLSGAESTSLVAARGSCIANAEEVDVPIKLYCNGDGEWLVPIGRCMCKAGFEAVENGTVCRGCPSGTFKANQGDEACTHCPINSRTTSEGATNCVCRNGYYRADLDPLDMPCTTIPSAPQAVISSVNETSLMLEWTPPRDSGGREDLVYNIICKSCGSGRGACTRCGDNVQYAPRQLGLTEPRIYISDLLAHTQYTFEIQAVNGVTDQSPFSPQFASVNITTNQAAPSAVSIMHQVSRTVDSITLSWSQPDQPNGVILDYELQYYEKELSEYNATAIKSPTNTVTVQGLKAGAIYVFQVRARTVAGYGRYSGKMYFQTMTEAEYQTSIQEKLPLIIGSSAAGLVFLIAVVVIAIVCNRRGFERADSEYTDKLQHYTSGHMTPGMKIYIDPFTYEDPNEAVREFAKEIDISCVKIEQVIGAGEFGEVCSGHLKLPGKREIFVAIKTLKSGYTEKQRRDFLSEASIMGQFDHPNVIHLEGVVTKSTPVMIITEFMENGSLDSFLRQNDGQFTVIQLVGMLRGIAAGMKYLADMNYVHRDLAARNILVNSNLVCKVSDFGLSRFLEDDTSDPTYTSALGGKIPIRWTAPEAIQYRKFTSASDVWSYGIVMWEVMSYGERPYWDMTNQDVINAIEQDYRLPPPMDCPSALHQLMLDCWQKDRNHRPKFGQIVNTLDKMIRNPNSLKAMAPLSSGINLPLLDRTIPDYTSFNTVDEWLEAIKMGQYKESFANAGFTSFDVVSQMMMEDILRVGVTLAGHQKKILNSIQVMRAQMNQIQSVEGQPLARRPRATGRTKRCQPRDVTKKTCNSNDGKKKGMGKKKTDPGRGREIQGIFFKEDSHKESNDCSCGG
Kind of assay: Inhibition of human EPHB2 assessed as enzyme activity at 1 uM using poly[Glu:Tyr] (4:1) as substrate preincubated for 20 mins followed by [gamma-33P]-ATP addition and measured after 120 mins by radiometric Hot-SpotSM Kinase assay relative to control.

The target in assay [3] is Mitogen-activated protein kinase 7 (Homo sapiens) (UniProt Q13164). Kind of assay: Inhibition of human ERK5 assessed as enzyme activity at 1 uM using myelin basic protein as substrate preincubated for 20 mins followed by [gamma-33P]-ATP addition and measured after 120 mins by radiometric Hot-SpotSM Kinase assay relative to control.
Sequence of Mitogen-activated protein kinase 7 (Homo sapiens) (Q13164 2-816 limits assumed): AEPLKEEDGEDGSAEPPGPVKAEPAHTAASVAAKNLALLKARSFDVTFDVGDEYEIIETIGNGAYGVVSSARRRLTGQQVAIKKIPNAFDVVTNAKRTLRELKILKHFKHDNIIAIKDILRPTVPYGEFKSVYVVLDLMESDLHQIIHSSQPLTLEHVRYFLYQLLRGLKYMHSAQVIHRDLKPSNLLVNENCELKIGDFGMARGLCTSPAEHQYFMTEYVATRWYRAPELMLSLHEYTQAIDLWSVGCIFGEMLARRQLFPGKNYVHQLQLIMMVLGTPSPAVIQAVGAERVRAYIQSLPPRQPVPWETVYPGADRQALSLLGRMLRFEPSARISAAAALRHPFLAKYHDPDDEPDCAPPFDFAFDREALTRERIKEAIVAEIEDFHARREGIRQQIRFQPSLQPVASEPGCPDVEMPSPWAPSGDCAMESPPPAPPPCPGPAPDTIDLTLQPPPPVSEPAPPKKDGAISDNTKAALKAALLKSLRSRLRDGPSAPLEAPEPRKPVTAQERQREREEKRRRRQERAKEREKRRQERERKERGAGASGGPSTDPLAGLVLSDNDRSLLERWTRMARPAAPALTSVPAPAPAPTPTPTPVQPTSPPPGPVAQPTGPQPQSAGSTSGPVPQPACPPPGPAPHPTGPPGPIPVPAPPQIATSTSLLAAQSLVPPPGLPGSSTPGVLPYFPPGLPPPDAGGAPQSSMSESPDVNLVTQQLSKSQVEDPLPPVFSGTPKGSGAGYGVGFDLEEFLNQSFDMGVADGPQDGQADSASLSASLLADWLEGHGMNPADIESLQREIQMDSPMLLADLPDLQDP
Assay [4] addresses Platelet-derived growth factor receptor beta (Homo sapiens) (UniProt P09619). In words: Inhibition of human PDGFRb assessed as enzyme activity at 1 uM using poly[Glu:Tyr] (4:1) as substrate preincubated for 20 mins followed by [gamma-33P]-ATP addition and measured after 120 mins by radiometric Hot-SpotSM Kinase assay relative to control.

Sequence of Platelet-derived growth factor receptor beta (Homo sapiens) (P09619 whole entry): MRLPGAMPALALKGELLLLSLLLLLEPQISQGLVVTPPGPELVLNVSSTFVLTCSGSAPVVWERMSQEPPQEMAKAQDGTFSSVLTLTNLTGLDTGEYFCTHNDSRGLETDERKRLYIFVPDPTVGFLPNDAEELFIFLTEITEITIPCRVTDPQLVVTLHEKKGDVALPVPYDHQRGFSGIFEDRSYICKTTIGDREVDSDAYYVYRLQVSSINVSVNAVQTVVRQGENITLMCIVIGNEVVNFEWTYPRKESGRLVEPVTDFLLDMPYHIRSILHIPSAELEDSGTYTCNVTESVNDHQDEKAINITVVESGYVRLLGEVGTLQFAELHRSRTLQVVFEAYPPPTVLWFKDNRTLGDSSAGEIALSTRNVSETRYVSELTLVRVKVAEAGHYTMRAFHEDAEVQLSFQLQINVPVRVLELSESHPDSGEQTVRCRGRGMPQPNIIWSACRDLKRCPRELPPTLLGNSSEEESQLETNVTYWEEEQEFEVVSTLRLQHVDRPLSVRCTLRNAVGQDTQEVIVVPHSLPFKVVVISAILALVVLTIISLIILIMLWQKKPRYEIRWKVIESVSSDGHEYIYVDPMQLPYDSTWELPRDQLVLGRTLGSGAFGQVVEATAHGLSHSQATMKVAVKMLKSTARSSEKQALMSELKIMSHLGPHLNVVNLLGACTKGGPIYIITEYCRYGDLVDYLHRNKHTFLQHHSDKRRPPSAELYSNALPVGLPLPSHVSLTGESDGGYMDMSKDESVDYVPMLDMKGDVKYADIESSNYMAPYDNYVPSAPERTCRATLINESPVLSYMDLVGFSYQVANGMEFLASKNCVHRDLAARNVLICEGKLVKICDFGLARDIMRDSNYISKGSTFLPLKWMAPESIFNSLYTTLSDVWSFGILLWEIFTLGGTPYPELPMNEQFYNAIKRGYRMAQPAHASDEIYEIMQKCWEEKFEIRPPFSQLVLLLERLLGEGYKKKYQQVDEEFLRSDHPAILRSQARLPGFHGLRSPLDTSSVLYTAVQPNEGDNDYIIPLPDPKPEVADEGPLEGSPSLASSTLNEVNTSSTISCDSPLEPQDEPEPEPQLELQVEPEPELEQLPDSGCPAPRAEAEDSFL

`C[C@H](Nc1ncnc2nc[nH]c12)c1cc2cccc(Cl)c2c(=O)n1-c1ccccc1`: the Activity in assay [1] is 94.1%; in assay [2] it was 92%; in assay [3], 92.9%; in assay [4], 97.8%.
In the same order, the values of `CC[C@H](Nc1ncnc2[nH]cnc12)c1nc2cccc(F)c2c(=O)n1-c1ccccc1` are 93.2%, 91.9%, 90.6% and 102%.
In the same order, the values of `CC(C)Oc1ccc(-c2nn([C@@H](C)c3oc4ccc(F)cc4c(=O)c3-c3cccc(F)c3)c3ncnc(N)c23)cc1F` [UMBRALISIB] are 95%, 95.9%, 103% and 104%.
